This passage reports IC50 results from ChEMBL document CHEMBL1153171, “Coumarins as novel 17beta-hydroxysteroid dehydrogenase type 3 inhibitors for potential treatment of prostate cancer” (Bioorg Med Chem Lett, 2010).

In experiment [1] the target is T1, 17-beta-hydroxysteroid dehydrogenase type 3 (Homo sapiens, UniProt P37058).
T1 sequence (P37058 whole entry): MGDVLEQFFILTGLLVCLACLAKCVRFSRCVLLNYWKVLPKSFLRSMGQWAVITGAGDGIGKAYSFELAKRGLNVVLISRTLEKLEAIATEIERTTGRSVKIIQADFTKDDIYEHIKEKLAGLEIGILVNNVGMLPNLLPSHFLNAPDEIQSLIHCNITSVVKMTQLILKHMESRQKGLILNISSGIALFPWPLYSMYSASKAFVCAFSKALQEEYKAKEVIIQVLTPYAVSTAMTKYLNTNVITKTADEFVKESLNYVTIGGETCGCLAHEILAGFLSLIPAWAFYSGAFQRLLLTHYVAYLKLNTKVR
Briefly: Inhibition of human 17beta-HSD3 expressed in HeLa cells. The format is cell-based.

The target of experiment [2] is T2, Androgen receptor (Homo sapiens, UniProt P10275).
T2 sequence (P10275 whole entry): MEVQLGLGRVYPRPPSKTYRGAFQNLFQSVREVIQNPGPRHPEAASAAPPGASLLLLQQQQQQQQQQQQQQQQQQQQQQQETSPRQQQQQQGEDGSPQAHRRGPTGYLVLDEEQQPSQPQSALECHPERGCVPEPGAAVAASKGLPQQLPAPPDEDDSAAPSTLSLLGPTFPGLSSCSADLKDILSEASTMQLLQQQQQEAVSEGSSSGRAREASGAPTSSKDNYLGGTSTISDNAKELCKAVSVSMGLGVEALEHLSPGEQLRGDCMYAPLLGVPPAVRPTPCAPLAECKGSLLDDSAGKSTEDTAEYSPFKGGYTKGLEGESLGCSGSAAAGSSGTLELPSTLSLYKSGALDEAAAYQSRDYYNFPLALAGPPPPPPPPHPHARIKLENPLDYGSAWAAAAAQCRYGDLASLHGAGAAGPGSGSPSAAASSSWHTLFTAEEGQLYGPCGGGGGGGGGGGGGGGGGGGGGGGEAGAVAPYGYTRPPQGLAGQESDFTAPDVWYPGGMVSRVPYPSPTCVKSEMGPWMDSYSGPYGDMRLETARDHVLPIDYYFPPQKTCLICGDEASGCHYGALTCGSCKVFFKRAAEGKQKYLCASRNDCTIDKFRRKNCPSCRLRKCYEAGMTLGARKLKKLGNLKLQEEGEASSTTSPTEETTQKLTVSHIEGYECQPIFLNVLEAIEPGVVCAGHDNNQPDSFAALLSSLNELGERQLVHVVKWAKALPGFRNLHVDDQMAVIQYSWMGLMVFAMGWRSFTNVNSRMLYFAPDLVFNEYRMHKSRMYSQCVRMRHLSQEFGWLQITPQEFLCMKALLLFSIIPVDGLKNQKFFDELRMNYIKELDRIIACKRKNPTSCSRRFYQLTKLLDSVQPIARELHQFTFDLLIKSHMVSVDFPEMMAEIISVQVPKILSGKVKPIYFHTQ
The experiment in a line: Agonist activity at AR by reporter gene assay. The format is functional. A general note: Reporter assays use an easily measured gene product as a stand-in for the process of interest.

Experiment [3] deals with T3, Estrogen receptor (Homo sapiens, UniProt P03372).
T3 sequence (P03372 whole entry): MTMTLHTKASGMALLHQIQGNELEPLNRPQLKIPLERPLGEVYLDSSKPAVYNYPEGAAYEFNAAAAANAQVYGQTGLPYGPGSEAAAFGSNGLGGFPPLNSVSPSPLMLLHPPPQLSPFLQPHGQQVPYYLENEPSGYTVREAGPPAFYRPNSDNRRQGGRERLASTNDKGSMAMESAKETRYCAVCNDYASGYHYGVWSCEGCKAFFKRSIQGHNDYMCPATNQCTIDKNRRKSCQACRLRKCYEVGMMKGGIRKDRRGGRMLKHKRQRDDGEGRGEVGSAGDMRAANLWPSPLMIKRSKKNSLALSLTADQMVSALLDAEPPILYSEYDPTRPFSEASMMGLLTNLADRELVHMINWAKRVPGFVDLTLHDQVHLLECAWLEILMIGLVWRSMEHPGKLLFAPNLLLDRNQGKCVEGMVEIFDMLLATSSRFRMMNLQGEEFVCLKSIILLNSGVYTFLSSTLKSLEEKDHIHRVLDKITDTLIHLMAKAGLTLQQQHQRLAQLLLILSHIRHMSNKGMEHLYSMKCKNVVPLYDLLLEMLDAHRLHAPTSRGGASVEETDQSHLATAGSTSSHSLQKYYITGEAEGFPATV
The experiment in a line: Antagonist activity at ER by reporter gene assay. Type of experiment: functional.

In experiment [4] the target is T3, Estrogen receptor. The experiment in a line: Agonist activity at ER by reporter gene assay. Type of experiment: functional.
In experiment [5] the target is T2, Androgen receptor. Briefly: Antagonist activity at AR by reporter gene assay. Type of experiment: functional.
The target of experiment [6] is T4, 17-beta-hydroxysteroid dehydrogenase type 1 (Homo sapiens, UniProt P14061).
T4 sequence (P14061 whole entry): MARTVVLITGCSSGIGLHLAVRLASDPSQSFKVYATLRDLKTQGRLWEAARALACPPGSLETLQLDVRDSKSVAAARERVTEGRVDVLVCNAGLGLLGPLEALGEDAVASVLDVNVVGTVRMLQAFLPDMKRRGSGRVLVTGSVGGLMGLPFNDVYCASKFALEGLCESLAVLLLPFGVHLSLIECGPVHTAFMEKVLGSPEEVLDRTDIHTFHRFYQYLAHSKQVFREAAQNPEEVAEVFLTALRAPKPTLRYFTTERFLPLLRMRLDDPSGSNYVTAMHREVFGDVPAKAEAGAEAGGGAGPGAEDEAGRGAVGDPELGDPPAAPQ
Briefly: Inhibition of 17beta-HSD1 by human cell based assay.

Experiment [7] has as its target T5, 17-beta-hydroxysteroid dehydrogenase type 2 (Homo sapiens, UniProt P37059).
T5 sequence (P37059 whole entry): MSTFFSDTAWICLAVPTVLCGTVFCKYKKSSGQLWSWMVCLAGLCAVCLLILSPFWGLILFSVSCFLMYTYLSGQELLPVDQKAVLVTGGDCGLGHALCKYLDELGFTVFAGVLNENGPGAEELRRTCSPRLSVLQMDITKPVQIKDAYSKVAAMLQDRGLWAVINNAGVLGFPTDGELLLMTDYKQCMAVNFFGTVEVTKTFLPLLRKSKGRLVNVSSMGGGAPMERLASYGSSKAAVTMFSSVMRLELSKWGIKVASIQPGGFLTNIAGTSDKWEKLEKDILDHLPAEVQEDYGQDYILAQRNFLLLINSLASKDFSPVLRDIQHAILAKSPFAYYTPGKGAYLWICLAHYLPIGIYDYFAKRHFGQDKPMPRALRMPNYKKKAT
Briefly: Inhibition of 17beta-HSD2 by human cell based assay.

Experiment [8] deals with T6, Glucocorticoid receptor (Homo sapiens, UniProt P04150).
T6 sequence (P04150 whole entry): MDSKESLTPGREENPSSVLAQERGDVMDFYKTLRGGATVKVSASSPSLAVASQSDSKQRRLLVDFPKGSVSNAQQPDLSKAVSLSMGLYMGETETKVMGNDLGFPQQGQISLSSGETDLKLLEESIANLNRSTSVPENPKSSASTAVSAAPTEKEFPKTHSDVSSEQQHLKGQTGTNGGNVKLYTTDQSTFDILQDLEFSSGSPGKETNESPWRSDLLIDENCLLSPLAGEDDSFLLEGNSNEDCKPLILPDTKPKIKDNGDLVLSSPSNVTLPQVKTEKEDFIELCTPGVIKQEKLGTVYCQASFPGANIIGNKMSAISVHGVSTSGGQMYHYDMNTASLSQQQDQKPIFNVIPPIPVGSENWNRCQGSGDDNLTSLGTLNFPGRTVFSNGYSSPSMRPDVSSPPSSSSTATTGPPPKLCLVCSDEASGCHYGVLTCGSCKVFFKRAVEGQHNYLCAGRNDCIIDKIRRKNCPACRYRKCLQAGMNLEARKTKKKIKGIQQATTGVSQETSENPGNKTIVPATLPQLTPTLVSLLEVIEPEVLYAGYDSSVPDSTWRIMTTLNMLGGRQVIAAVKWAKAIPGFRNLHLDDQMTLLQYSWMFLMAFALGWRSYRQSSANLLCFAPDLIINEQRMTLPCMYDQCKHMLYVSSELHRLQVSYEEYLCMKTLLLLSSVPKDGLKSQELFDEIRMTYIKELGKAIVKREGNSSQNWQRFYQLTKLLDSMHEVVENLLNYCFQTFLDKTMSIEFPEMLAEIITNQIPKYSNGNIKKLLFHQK
The experiment in a line: Agonist activity at GR by reporter gene assay. Type of experiment: functional.

For experiment [9], the target named is T6, Glucocorticoid receptor. Briefly: Antagonist activity at GR by reporter gene assay. Type of experiment: functional.

In general, IC50 refers to the midpoint of a concentration-inhibition curve. `Cc1cccc(OCCc2cc(=O)oc3cc(O)ccc23)n1`: the IC50 in experiment [1] worked out at 1000 nM. In [1], `O=c1cc(CSc2ccccn2)c2ccc(O)cc2o1` displayed an IC50 of 3 nM. Turning to `O=c1cc(COc2ccccc2)c2ccc(O)cc2o1`, in experiment [1], the IC50 was determined as 10000 nM. In experiment [1], `Cc1c(Cc2ccccc2)c(=O)oc2cc(O)ccc12` gave an IC50 of 200 nM. Compound `O=c1cc(CSc2ccccc2)c2ccc(O)cc2o1` had an IC50 in experiment [1] of 93 nM.

Take `Cc1c(Cl)c(=O)oc2cc(O)ccc12`: in [1], the IC50 stood at 100 nM. Still for that read-out and setting: the same measure for `Cc1c(C)c2ccc(O)cc2oc1=O`: 210 nM.

For the compound `COCc1cc(=O)oc2cc(O)ccc12`, the IC50 in [1] turned out to be 5000 nM. `Cc1cccc(CCc2cc(=O)oc3cc(O)ccc23)n1`: the half-maximal inhibitory concentration (IC50) result is “Not Active” at Androgen receptor [2]; “Not Active” against Estrogen receptor [3]; “Not Active” at Estrogen receptor [4]; “Not Active” against Androgen receptor [5]; “Not Active” in [6]; 8 nM in experiment [1]. Further, the IC50 entry (in [7]; on Glucocorticoid receptor [8]; on Glucocorticoid receptor [9]) was “Not Active” in each case. In turn, `CCCc1cc(=O)oc2cc(O)ccc12` gave an IC50 in [1] of 59 nM.

In [1], `CCc1cc(=O)oc2cc(O)ccc12` came in with an IC50 of 100 nM. The same measure, in the same setting: the same measure for `O=c1cc(C(F)(F)F)c2ccc(O)cc2o1`: 190 nM; for `O=c1cc(CSc2ccc([N+](=O)[O-])cn2)c2ccc(O)cc2o1`: 88 nM. The same measure, in the same setting: the same measure for `O=c1oc2cc(O)ccc2c(C(F)(F)F)c1CSc1ccccn1`: 320 nM; for `O=c1cc(CSc2nccs2)c2ccc(O)cc2o1`: 10 nM; for `O=c1cc(CCc2ccccc2)c2ccc(O)cc2o1`: 20 nM.

In turn, `O=c1cc(-c2ccccc2)c2ccc(O)cc2o1` yielded an IC50 in [1] of 1000 nM. On the same count and under the same terms, next, `O=c1cc(Cc2ccccc2)c2ccc(O)cc2o1`: 10000 nM; `Cc1c(C#N)c(=O)oc2cc(O)ccc12`: 1000 nM; `Cn1ccnc1SCc1cc(=O)oc2cc(O)ccc12`: 91 nM. Still for that read-out and setting: the same measure for `O=c1cc(CSC2NCCS2)c2ccc(O)cc2o1` (stereo not given): 96 nM; for `O=c1cc(CNc2ccccc2)c2ccc(O)cc2o1`: 4000 nM.

In turn, `Cc1cc2ccc(O)cc2oc1=O` came in with an IC50 in experiment [1] of 1000 nM. In [1], `Cc1cccc(SCc2c(Cl)c(=O)oc3cc(O)ccc23)n1` returned an IC50 of 47 nM. Still for that read-out and setting: the same measure for `O=c1cc(CSc2ccc(C(F)(F)F)cn2)c2ccc(O)cc2o1`: 230 nM. Consider `Cc1cccc(SCc2cc(=O)oc3cc(O)ccc23)n1`, for which the IC50 result on Androgen receptor [2] was “Not Active”; against Estrogen receptor [3], “Not Active”; at Estrogen receptor [4] (read-out: IC50), 50000 nM; on Androgen receptor [5] (read-out: IC50), 50000 nM; in experiment [6], “Not Active”; in [1], 1.5 nM. The IC50 result (in experiment [7]; at Glucocorticoid receptor [8]; on Glucocorticoid receptor [9]) was “Not Active” each time. In the case of `O=c1cc(CSc2nncs2)c2ccc(O)cc2o1`, the IC50 in experiment [1] turned out to be 200 nM.

In experiment [1], `Cc1cccc(SCc2c(F)c(=O)oc3cc(O)ccc23)n1` gave an IC50 of 27 nM. Compound `Cc1cc(=O)oc2cc(O)ccc12` [HYMECROMONE] displayed a concentration for half-maximal inhibition (IC50) in experiment [1] of 1000 nM. Consider `O=c1oc2cc(O)ccc2c(C(F)(F)F)c1Cc1ccccc1`, for which the IC50 entry at Androgen receptor [2] is “Not Active”; at Estrogen receptor [3] it was “Not Active”; on Estrogen receptor [4] (read-out: IC50), 1000 nM; at Androgen receptor [5] (read-out: IC50), 6000 nM; in experiment [6], “Not Active”; in experiment [1], 30 nM. The IC50 result (in experiment [7]; at Glucocorticoid receptor [8]; at Glucocorticoid receptor [9]) was “Not Active” throughout. On to `CN(Cc1cc(=O)oc2cc(O)ccc12)c1ccccc1`, for which the IC50 in experiment [1] was determined as 6000 nM.

In [1], `CCCc1c(C)c2ccc(O)cc2oc1=O` yielded an IC50 of 240 nM. Compound `O=c1cc(CSc2cccs2)c2ccc(O)cc2o1` had an IC50 in experiment [1] of 420 nM. Take `O=c1cc(CSc2ccncc2)c2ccc(O)cc2o1`: inhibition in experiment [1] was half-maximal at 5000 nM (IC50). In experiment [1], `Cc1c(F)c(=O)oc2cc(O)ccc12` had an IC50 of 1000 nM.

`O=c1cc(CSc2ncccn2)c2ccc(O)cc2o1` yielded an IC50 in experiment [1] of 1000 nM.
